Reference: patent US12370139B2 (TREEWAY TW001 B.V., priority 2017, dated 2025)
Read-outs that look alike come from different tables or passages of the source.

Columns and labels:
[1] = Example 1: single dose, randomized, two-period, cross-over pharmacokinetic study, oral solution vs i.v. infusion; format: in vivo, human; conditions: for Edaravone plasma concentration: time Pre
Method: A single dose, randomized, two-period, cross-over study was conducted in 18 healthy male and female human subjects.

[2] = Example 2: repeat of the Example 1 study, with edaravone metabolites in plasma; format: in vivo, human; conditions: for Edaravone plasma concentration: time Pre; for AUC(0-inf): extrapolated to infinity; for Ratio conjugate-to-parent drug (AUClast): ratio calculated using AUClast (h · μMol/L)
Source text: The study described in Example 1 was repeated, again using 18 healthy male and female human subjects.

[3] = Dissolution rate of edaravone in water; format: physicochemical; conditions: in the presence of an alkalizing agent, especially at at least 0.3 grams edaravone per liter
Source text: The oxides and hydroxides of alkaline metals are preferably selected from NaOH, KOH, LiOH and combinations thereof. The oxides and hydroxides of alkali-earth metals are preferably selected from Ca(OH)2, CaO, Mg(OH)2, MgO and combinations thereof. The salts of weak organic and weak inorganic acids are preferably selected from carbonate, bicarbonate, borate, carboxylate (e.g. lactate, citrate, acetate, formate and oxalate), phosphate, sulfate and combinations thereof. The alkaline amines are preferably selected from tris(hydroxymethyl)aminomethane, ethanolamine, diethanolamine, triethanolamine, N-methyl-glucamine, glucosamine, ethylenediamine, diethylamine, triethylamine, isopropylamine, diisopropylamine, ammonia and combinations thereof. The alkaline amino acids are preferably selected from arginine, histidine, lysine and combinations thereof.

[4] = male Wistar rats, cited from earlier work
[5] = SD rats, in comparison to intravenous administration; cited from earlier work
[6] = rats, oral, dose of 27 mg/kg, suspended with 0.5% CMC-Na, compared to 100% for intravenous; cited from earlier work
[7] = APP/PS1 Mice, oral 33.2 mg/kg/d; cited from earlier work
APP/PS1 mice = conditions: cited from earlier work
[8] = both sexes, human, plasma, iv, Example 2, i.v. infusion 60 mg
[9] = both sexes, human, plasma, iv, Example 2, i.v. infusion (60 mg)
[10] = both sexes, human, plasma, Example 2, oral administration 140 mg
[11] = both sexes, human, plasma, Example 2, oral administration (140 mg)
[12] = i.v. infusion of edaravone 60 mg (n = 18)
[13] = oral administration of edaravone 140 mg (n = 18)

For `CC1=NN(c2ccccc2)C(=O)C1` [Edaravone, 3-methyl-1-phenyl-2-pyrazolin-5-one], the Edaravone plasma concentration ([1]; Example 1, i.v. infusion (60 mg, 60 minutes)) was 0 ng/mL, the Edaravone plasma concentration ([1]; Example 1, oral administration (140 mg)) was 0 ng/mL and the “systemic bioavailability (Fabs)” value ([1]; Example 1, oral compared to i.v. infusion) was 79%. The “time at which peak maximum concentrations are reached after administration” value ([1]; Example 1, orally administered) was “about 15 min”, the Edaravone plasma concentration ([2]; Example 2, i.v. infusion (60 mg)) was 0 ng/mL and the Edaravone plasma concentration ([2]; Example 2, oral administration (140 mg)) was 0 ng/mL. The “contribution of gastrointestinal metabolism to the overall plasma metabolism profile” value ([2]; Example 2, oral in comparison to intravenous administration) was “No indication for a relevant contribution of gastrointestinal metabolism”, the “time at which peak maximum concentrations are reached after administration” value ([2]; Example 2, orally administered) was “about 14 min” and the bioavailability ([2]; both sexes, human, plasma, 140 mg, Example 2, oral compared to i.v. infusion, read-out: systemic bioavailability (Fabs)) was 93%. The AUC(0-t) [2, 8] was 1220 ng·h/mL, the Cmax [2, 8] was 943 ng/mL and the AUC(0-inf) [2, 8] was 1210 ng·h/mL. The concentration at 0.17 h [2, 9] was 373 ng/mL, the concentration at 0.5 hrs [2, 9] was 696 ng/mL and the concentration at 1 hrs [2, 9] was 943 ng/mL. It also gave a concentration at 1.5 hrs [2, 9] of 298 ng/mL, a concentration at 4 h [2, 9] of 36 ng/mL and a concentration at 6 h [2, 9] of 13 ng/mL. For the same compound, the concentration at 8 h [2, 9] was 7 ng/mL, the concentration at 10 h [2, 9] was 5 ng/mL and the AUC(0-t) [2, 10] was 2560 ng·h/mL. It also gave a Cmax [2, 10] of 3530 ng/mL, a Tmax [2, 10] of 13.8 min and an AUC(0-inf) [2, 10] of 2570 ng·h/mL. For the same compound, the concentration at 0.083 h ([2]; both sexes, human, plasma, Example 2, oral administration (140 mg), 0.083 hrs) was 1530 ng/mL, the concentration at 0.17 h [2, 11] was 2760 ng/mL and the concentration at […] ([2]; both sexes, human, plasma, Example 2, oral administration (140 mg), 0.25 hrs) was 3060 ng/mL. For the same compound, the concentration at 0.5 hrs [2, 11] was 2000 ng/mL, the concentration at 1 hrs [2, 11] was 762 ng/mL and the concentration at 1.5 hrs [2, 11] was 388 ng/mL. For the same compound, the concentration at 2 hrs ([2]; both sexes, human, plasma, Example 2, oral administration (140 mg), 2 hrs) was 228 ng/mL, the concentration at 4 h [2, 11] was 63 ng/mL and the concentration at 6 h [2, 11] was 24 ng/mL. The concentration at 8 h [2, 11] was 13 ng/mL, the concentration at 10 h [2, 11] was 8 ng/mL and the “rate at which edaravone dissolves in water” value [3] was “increased substantially”. For the same compound, the plasma concentration ([4]; orally administered at 10 mg/kg) was 243 ng/mL, the plasma concentration ([4]; orally administered at 30 mg/kg) was 1314 ng/mL and the plasma concentration ([4]; orally administered at 100 mg/kg) was 10999 ng/mL. For the same compound, the oral bioavailability [5] was about 5.8%, the “absolute bioavailability (Fabs)” value [6] was 5.23% and the “bioavailability of oral edaravone, of the i.v. delivery” value [7] was 38%. For the same compound, the “cognitive deficits (escaping latency in platform testing, annulus crossing in probing test)” value (APP/PS1 mice) was “prominently attenuated”, the “Aβ levels in the brain” value (APP/PS1 mice; oral intake) was “significantly reduced” and the “Aβ plaque burden in the hippocampus and neocortex” value (APP/PS1 mice; oral intake) was “markedly alleviated”.

With `Cc1cc(O[C@@H]2O[C@H](C(=O)O)[C@@H](O)[C@H](O)[C@H]2O)n(-c2ccccc2)n1` [Glucuronide conjugate] the “Ratio conjugate-to-parent drug (AUClast)” value [2, 12] was 1.4 ± 1.0 and the “Ratio conjugate-to-parent drug (AUClast)” value [2, 13] was 1.8 ± 0.8.

For `Cc1cc(OS(=O)(=O)O)n(-c2ccccc2)n1` [Sulfate conjugate], the “Ratio conjugate-to-parent drug (AUClast)” value [2, 12] was 9.9 ± 2.7 and the “Ratio conjugate-to-parent drug (AUClast)” value [2, 13] was 9.5 ± 2.8.
